Tests used:
[1] = molecular target: FGFR4 kinase (Homo sapiens, UniProt P22455); test: Inhibition of FGFR4 kinase activity (ULight-labeled JAK-1 peptide, EU665/EU615 reading); format: biochemical; conditions: FGFR4 kinase 3.85 nM, ATP 100 μM, enzymatic reaction 2 hours
Experimental: (§1) Assay of activity of small molecule compounds on inhibiting FGFR4 kinase and FGFR4 V550L mutant kinase. The assay method was as follows:
(§2) 1) Dilution of Compounds:
(§3) In a 96-well plate a, the compounds were serially diluted 3-fold with DMSO to form 11 concentrations, and the 12th concentration was pure DMSO (as a positive control); In a new 96-well plate b, the above solutions were diluted 25-fold with ultrapure water (DMSO concentration was 4%).
(§4) 2) Transferring Compounds to a 384-Well Plate:
(§5) The above solutions of compounds diluted with ultrapure water in the 96-well plate b were pipetted into corresponding wells of a 384-well plate.
(§6) 3) Adding 4× kinase solution: 2.5 μl of the above 4× kinase solutions were pipetted with a multi-channel pipette into corresponding reaction wells of the 384-well plate, and the mixture was mixed well and pre-reacted at room temperature for 5 minutes.
(§7) 4) Adding 2× substrate/ATP mixture: 5 μl of the above 2× substrate/ATP mixtures were pipetted with a multi-channel pipette into corresponding reaction wells of the 384-well plate.
(§8) 5) Negative control: negative control wells were set up in the 384-well plate by adding 2.5 μl of 4× substrate, 2.5 μl of 4× enzyme solution, 2.5 μl of 1× kinase Assay Buffer and 2.5 μl of ultrapure water containing 4% DMSO to each well.
(§9) 6) Centrifuging, mixing well, and reacting at room temperature in the dark for 2 hours.
(§10) 7) Terminating the Enzymatic Reaction:
(§11) 5 μl of the above 4× stop solutions were pipetted into corresponding wells of the 384-well plate, and the mixture was centrifuged, mixed well, and then reacted at room temperature for 5 minutes.
(§12) 8) Development of the Reaction:
(§13) 5 μl of the above 4× detection solutions were pipetted into corresponding wells of the 384-well plate, and the mixture was centrifuged, mixed well, and then reacted at room temperature for 1 hour.
(§14) 9) The 384-well plate was placed into a plate reader, and the signal was detected using the appropriate program.
(§15) 10) Analysis of IC50: Reading of well=10000*EU665 value/EU615 value Inhibition rate=(reading of positive control well−reading of assay well)/(reading of positive control well−reading of negative control well)*100%
(§16) The corresponding IC50 can be calculated by inputting the drug concentrations and corresponding inhibition rates into GraphPad Prism 5 and processing.
Assay Conditions for Screening FGFR4 Kinase Activity Inhibitory Molecule:
The final concentration of FGFR4 kinase in the reaction system was 3.85 nM, the final concentration of ATP was 100 μM, the final concentration of substrate ULight™-labeled JAK-1 (Tyr1023) Peptide was 100 nM, and the time for enzymatic reaction was 2 hours.
The highest final concentration of the compound in the reaction system was 2.5 μM. After serial 3-fold dilution, there were 11 concentrations in total, and the lowest final concentration was 0.042 nM. The final concentration of DMSO was 1%.

[2] = molecular target: FGFR4 V550L kinase (Homo sapiens, UniProt P22455, V550L); test: Inhibition of FGFR4 V550L mutant kinase activity (ULight-labeled PolyGT, EU665/EU615 reading); format: biochemical; conditions: FGFR4 V550L kinase 1 nM, ATP 10 μM, enzymatic reaction 2 hours
Chain of FGFR4 V550L kinase (P22455 22-802 V550L): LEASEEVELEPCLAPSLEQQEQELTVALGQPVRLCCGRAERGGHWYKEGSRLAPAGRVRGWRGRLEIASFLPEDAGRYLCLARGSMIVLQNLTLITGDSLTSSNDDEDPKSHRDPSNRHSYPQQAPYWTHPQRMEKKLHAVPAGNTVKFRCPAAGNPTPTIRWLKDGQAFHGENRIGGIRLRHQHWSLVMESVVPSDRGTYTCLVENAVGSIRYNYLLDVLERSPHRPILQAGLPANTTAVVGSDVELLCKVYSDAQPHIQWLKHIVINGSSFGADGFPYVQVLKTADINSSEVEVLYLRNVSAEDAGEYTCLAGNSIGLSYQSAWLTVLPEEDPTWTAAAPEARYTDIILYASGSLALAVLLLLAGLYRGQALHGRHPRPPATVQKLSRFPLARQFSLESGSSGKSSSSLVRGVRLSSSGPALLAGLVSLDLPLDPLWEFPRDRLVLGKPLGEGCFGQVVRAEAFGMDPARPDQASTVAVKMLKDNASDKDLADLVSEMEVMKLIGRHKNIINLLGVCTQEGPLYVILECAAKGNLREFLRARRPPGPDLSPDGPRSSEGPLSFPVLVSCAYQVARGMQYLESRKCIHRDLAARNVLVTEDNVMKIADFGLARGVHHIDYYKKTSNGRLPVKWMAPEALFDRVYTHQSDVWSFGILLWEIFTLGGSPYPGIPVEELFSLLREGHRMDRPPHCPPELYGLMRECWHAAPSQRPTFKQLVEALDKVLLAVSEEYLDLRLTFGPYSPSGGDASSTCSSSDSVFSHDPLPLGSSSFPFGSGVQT
Experimental: as §1, §2, §3, §4, §5, §6, §7, §8, §9, §10, §11, §12, §13, §14, §15, §16
Assay Conditions for Screening FGFR4 V550L Kinase Activity Inhibitory Molecule:
The final concentration of FGFR4 V550L kinase in the reaction system was 1 nM, the final concentration of ATP was 10 μM, the final concentration of substrate ULight™-labeled PolyGT was 100 nM, and the time for enzymatic reaction was 2 hours.
The highest final concentration of the compound in the reaction system was 2.5 μM. After seral 3-fold dilution, there were 11 concentrations in total, and the lowest final concentration was 0.042 nM. The final concentration of DMSO was 1%.

[3] = molecular target: T1, Ba/F3 ETV6-FGFR4 cells (Homo sapiens, UniProt P22455); test: Inhibition of cell proliferation (CCK-8), Ba/F3 ETV6-FGFR4 cells; format: cell-based; conditions: 72 hours of incubation, read-out: Ba/F3 ETV6-FGFR4 IC50
T1 construct: fused on or other part: N-terminal part of ETV6 (TEL), the oligomerising partner that makes the FGFR4 kinase constitutively active; P41212 (Transcription factor ETV6)
T1 sequence (P22455 whole entry, change not shown, the tested form may be a part): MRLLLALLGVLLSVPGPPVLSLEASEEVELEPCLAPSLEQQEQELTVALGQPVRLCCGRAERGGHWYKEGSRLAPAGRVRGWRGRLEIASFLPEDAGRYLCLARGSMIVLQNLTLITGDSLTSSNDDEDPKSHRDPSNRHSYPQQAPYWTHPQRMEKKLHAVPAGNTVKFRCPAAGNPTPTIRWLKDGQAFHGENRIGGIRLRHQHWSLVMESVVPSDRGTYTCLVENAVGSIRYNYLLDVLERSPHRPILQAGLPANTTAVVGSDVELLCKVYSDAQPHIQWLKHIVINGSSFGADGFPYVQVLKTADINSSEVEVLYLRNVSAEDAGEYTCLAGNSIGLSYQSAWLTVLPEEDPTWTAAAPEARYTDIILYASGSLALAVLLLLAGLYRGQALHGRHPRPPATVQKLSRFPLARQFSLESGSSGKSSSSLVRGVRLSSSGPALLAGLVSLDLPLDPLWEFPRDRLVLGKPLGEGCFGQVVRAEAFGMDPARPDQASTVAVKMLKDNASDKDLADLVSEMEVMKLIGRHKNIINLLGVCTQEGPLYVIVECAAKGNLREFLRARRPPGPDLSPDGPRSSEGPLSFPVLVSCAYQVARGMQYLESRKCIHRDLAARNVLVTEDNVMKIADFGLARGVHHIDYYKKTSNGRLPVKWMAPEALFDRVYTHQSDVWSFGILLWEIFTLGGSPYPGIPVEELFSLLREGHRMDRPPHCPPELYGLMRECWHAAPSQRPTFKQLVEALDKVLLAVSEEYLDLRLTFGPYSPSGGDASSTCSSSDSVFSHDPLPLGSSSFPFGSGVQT
Experimental: (§17) Compounds were assayed for inhibiting cell proliferation, and the specific method was as follows: • 1. Cells were cultured to a logarithmic growth phase, pipetted evenly, transferred to a 15 mL centrifuge tube, and centrifuged at 1000 rpm at room temperature for 4 minutes; • 2. The supernatant was discarded; 5 mL of complete medium was added and pipetted evenly; 10 μL of cell suspension was weighed, mixed well with 10 μL of 0.4% trypan blue, and counted under a cell counter; the proportion of living cells was ensured to be above 90%; • 3. The cell suspension was seeded into a 96-well plate (80 μL of cell suspension per well) according to the conditions shown in Table 5; in the outer 36 wells of the 96-well plate, no cells were added but only sterile water was added; only the inner 60 wells were used for cell assay and control; • 4. 5× compound dilution: the compounds were serially diluted 4-fold to give a total of 9 concentrations; 80-fold overall dilution was completed with complete medium, the resulting concentration was 5 times the final drug concentration, and DMSO concentration was 1.25%; • 5. 20 μL of the corresponding compounds with different concentrations were added to each well of assay wells of the 96-well plate; 20 μL of complete medium was added to positive and negative control wells and shaken well; and the final concentration of DMSO in each well was 0.25%; • 6. After 72 hours of incubation, 10 μL of CCK-8 reagent was added to each well and further incubated at 37° C. for 1-2 hours; and the OD value was read at 450 nm; 7. Cell survival rate (%)=[(As−Ab)/(Ac−Ab)]*100% • As: Assay well (medium containing cells, CCK-8, compound) • Ac: Control well (medium containing cells, CCK-8) • Ab: Blank well (medium without cell and compound, CCK-8) • 8. The values were imported into Graphpad Prism 5 software for IC50 calculation.

[4] = molecular target: T2, Ba/F3 ETV6-FGFR4-V550L cells (Homo sapiens, UniProt P22455, V550L, cells depend on it); test: Inhibition of cell proliferation (CCK-8), Ba/F3 ETV6-FGFR4-V550L cells; format: cell-based; conditions: 72 hours of incubation, read-out: Ba/F3 ETV6-FGFR4-V550L IC50
T2 construct: fused on or other part: N-terminal part of ETV6 (TEL), the oligomerising partner of the fusion; already named as the first entry; P41212 (Transcription factor ETV6)
T2 sequence (P22455 whole entry V550L, the tested form may be a part): as the sequence (P22455 whole entry, change not shown, the tested form may be a part) above, with V550L counted along it
Experimental: as §17

Chain of FGFR4 kinase (P22455 22-802): as the sequence (P22455 22-802 V550L) above, with L529V counted along it

Row | IC50 [1] [nM] | IC50 [2] [nM] | GI50 [3] [nM] | GI50 [4] [nM] | Structure (SMILES)
1 | 10 to 50 | 10 to 50 | ≤ 10 | ≤ 10 | C=CC(=O)Nc1cc(N2CCC(N3CCS(=O)(=O)CC3)CC2)ccc1Nc1ncc(C#N)c(Nc2ccccc2OC(C)C)n1 [Example 76, N-(2-((5-cyano-4-((2-isopropoxyphenyl)amino)pyrimidin-2-yl)amino)-5-(4-(1,1-dioxidothiomorpholino)piperidin-1-yl)phenyl) acrylamide]
2 | ≤ 10 | 10 to 50 | ≤ 10 | ≤ 10 | C=CC(=O)Nc1cc(N2CCC(N(C)C3CC3)CC2)ccc1Nc1ncc(C#N)c(Nc2ccccc2OC(C)C)n1 [Example 63, N-(2-((5-cyano-4-((2-isopropoxyphenyl)amino)pyrimidin-2-yl)amino)-5-(4-(cyclopropyl (methyl)amino)piperidin-1-yl)phenyl) acrylamide]
3 | 10 to 50 | ≤ 10 | ≤ 10 | ≤ 10 | C=CC(=O)Nc1cc(N2CCC(N3CCCCC3)CC2)ccc1Nc1ncc(C#N)c(Nc2ccccc2OC(C)C)n1 [Example 4, N-(5-([1,4′-bipiperidin]-1′-yl)-2-((5-cyano-4-((2-isopropoxyphenyl)amino)pyrimidin-2-yl)amino)phenyl) acrylamide]
4 | 10 to 50 | ≤ 10 | ≤ 10 | ≤ 10 | C=CC(=O)Nc1cc(N2CCC(N(C)C)CC2)c(F)cc1Nc1ncc(C#N)c(Nc2ccccc2OC(C)C)n1 [Example 16, N-(2-((5-cyano-4-((2-isopropoxyphenyl)amino)pyrimidin-2-yl)amino)-5-(4-(dimethylamino)piperidin-1-yl)-4-fluorophenyl) acrylamide]
5 | ≤ 10 | ≤ 10 | ≤ 10 | ≤ 10 | C=CC(=O)Nc1cc(N2CCC(N3CCC(C)(O)CC3)CC2)ccc1Nc1ncc(C#N)c(Nc2ccccc2OC(C)C)n1 [Example 42, N-(2-((5-cyano-4-((2-isopropoxyphenyl)amino)pyrimidin-2-yl)amino)-5-(4-hydroxy-4-methyl-[1,4′-bipiperidin]-1′-yl)phenyl) acrylamide]
6 | 10 to 50 | ≤ 10 | ≤ 10 | ≤ 10 | C=CC(=O)Nc1cc(N2CCN(C)CC2)ccc1Nc1ncc(C#N)c(Nc2ccccc2OC(C)C)n1 [Example 1, N-(2-((5-cyano-4-((2-isopropoxyphenyl)amino)pyrimidin-2-yl)amino)-5-(4-methylpiperazin-1-yl)phenyl)acrylamide]
7 | 100 to 1000 | 10 to 50 | ≤ 10 | ≤ 10 | C=CC(=O)Nc1cc(N2CCC(N3CCOCC3)CC2)c(F)cc1Nc1ncc(C#N)c(Nc2ccccc2OC(C)C)n1 [Example 19, N-(2-((5-cyano-4-((2-isopropoxyphenyl)amino)pyrimidin-2-yl)amino)-4-fluoro-5-(4-morpholinopiperidin-1-yl)phenyl) acrylamide]
8 | 10 to 50 | ≤ 10 | ≤ 10 | ≤ 10 | C=CC(=O)Nc1cc(N(C)CCN(C)C)ccc1Nc1ncc(C#N)c(Nc2ccccc2OC(C)C)n1 [Example 54]
9 | 10 to 50 | 10 to 50 | ≤ 10 | ≤ 10 | C=CC(=O)Nc1cc(N2CCN(CC)CC2)ccc1Nc1ncc(C#N)c(Nc2ccc(Cl)cc2OC(C)C)n1 [Example 29, N-(2-((4-((4-chloro-2-isopropoxyphenyl)amino)-5-cyanopyrimidin-2-yl)amino)-5-(4-ethylpiperazin-1-yl)phenyl) acrylamide]
10 | ≤ 10 | 10 to 50 | ≤ 10 | ≤ 10 | C=CC(=O)Nc1cc(N2CCC(N3CCC(C#N)CC3)CC2)ccc1Nc1ncc(C#N)c(Nc2ccccc2OC(C)C)n1 [Example 66, N-(2-((5-cyano-4-((2-isopropoxyphenyl)amino)pyrimidin-2-yl)amino)-5-(4-cyano-[1,4-bipiperidin]-1′-yl)phenyl) acrylamide]
11 | 10 to 50 | ≤ 10 | ≤ 10 | ≤ 10 | C=CC(=O)Nc1cc(N2CCC(N(C)CCOC)CC2)ccc1Nc1ncc(C#N)c(Nc2ccccc2OC(C)C)n1 [Example 56, N-(2-((5-cyano-4-((2-isopropoxyphenyl)amino)pyrimidin-2-yl)amino)-5-(4-((2-methoxyethyl) (methyl)amino)piperidin-1-yl)phenyl) acrylamide]
12 | 10 to 50 | 10 to 50 | ≤ 10 | ≤ 10 | C=CC(=O)Nc1cc(N2CCC(N3CCN(C)CC3)CC2)c(F)cc1Nc1ncc(C#N)c(Nc2ccc(F)cc2OC(C)C)n1 [Example 40, N-(2-((5-cyano-4-((4-fluoro-2-isopropoxyphenyl)amino)pyrimidin-2-yl)amino)-4-fluoro-5-(4-(4-methylpiperazin-1-yl)piperidin-1-yl)phenyl) acrylamide]
13 | ≤ 10 | 50 to 100 | ≤ 10 | 10 to 50 | C=CC(=O)Nc1cc(N2CCC(N3CCC(F)(F)CC3)CC2)ccc1Nc1ncc(C#N)c(Nc2ccccc2OC(C)C)n1 [Example 71, N-(2-((5-cyano-4-((2-isopropoxyphenyl)amino)pyrimidin-2-yl)amino)-5-(4,4-difluoro-[1,4-bipiperidin]-1′-yl)phenyl) acrylamide]
14 | ≤ 10 | ≤ 10 | ≤ 10 | ≤ 10 | C=CC(=O)Nc1cc(N2CCC(N(C)CCCO)CC2)ccc1Nc1ncc(C#N)c(Nc2ccccc2OC(C)C)n1 [Example 68, N-(2-((5-cyano-4-((2-isopropoxyphenyl)amino)pyrimidin-2-yl)amino)-5-(4-((3-hydroxypropyl) (methyl)amino)piperidin-1-yl)phenyl) acrylamide]
15 | 10 to 50 | ≤ 10 | ≤ 10 | ≤ 10 | C=CC(=O)Nc1cc(N(C)CCN(C)C)c(OC)cc1Nc1ncc(C#N)c(Nc2ccccc2OC(C)C)n1 [Example 55, N-(2-((5-cyano-4-((2-isopropoxyphenyl)amino)pyrimidin-2-yl)amino)-5-((2-(dimethylamino)ethyl)(methyl)amino)-4-methoxyphenyl) acrylamide]
